Marks after values point to notes of the source that are not given here.
Tests used:
[1] = tested on: carcinoembryonic antigen (CEA); test: carcinoembryonic antigen (CEA) level; type: in vivo, human
Description: The mutation status of mechanism-related (APC) and common oncogenes (KRAS, BRAF, and NRAS) was obtained from fresh tumor biopsies or latest medical records in patients with colorectal cancer. Mechanism-related biomarker protein (axin and β-catenin) expression levels were evaluated in archived or freshly prepared formalin-fixed, paraffin-embedded tissue blocks collected at pre- and posttreatment visits using the immunohistochemistry method. Well-known cancer biomarker [carcinoembryonic antigen (CEA) for colorectal cancer and non–small cell lung cancer, α-fetoprotein for HCC, carbohydrate antigen 19-9 for gastric cancer, and vascular endothelial growth factor for RCC] levels were also analyzed throughout the study.

[2] = phase I plasma pharmacokinetics (HPLC-MS/MS, non-compartmental); type: in vivo, human; details: for AUC0–6 / AUClast / Cmax / Tmax / t1/2: Day 1; for AUC0–6 / AUClast / Cmax / AUC0–6,ss / Cmax,ss: geometric mean (geometric CV%); for Tmax / Tmax,ss: median (min, max); for t1/2: arithmetic mean (±SD); for AUC0–6,ss / Cmax,ss / Tmax,ss: Day 8
Description: Blood samples for PK analysis were collected with K2EDTA tubes in serial before dose and at 0.25, 0.5, 1, 1.5, 2, 3, 4, 6, 8, 12, and 24 hours after dose on cycle 1 day 1 and before dose and at 1, 2, 3, 4, and 6 hours after dose on cycle 1 day 8 and before dose on days 1 and 15 of cycle 2 and beyond. Plasma concentrations of basroparib and its major metabolite, STP06-1007, were determined using the validated high-performance liquid chromatography/tandem mass spectrometry method at the bioanalytic laboratory (Celerion, Inc.). The analytic range (lower limit of quantitation – upper limit of quantitation) for basroparib and STP06-1007 was 0.05 to 250 ng/mL. Non-compartmental PK parameters were calculated using Phoenix WinNonlin version 8.4.0 (Certara).

[3] = Cohort 1 (30 mg, once daily) N = 3
[4] = Cohort 2 (60 mg, once daily) N = 4
[5] = Cohort 3 (120 mg, once daily) N = 3
[6] = Cohort 4 (180 mg, once daily) N = 5
[7] = Cohort 5 (240 mg, once daily) N = 3
[8] = Cohort 6 (300 mg, once daily) N = 3
[9] = Cohort 6 (300 mg, once daily), two patients
[10] = Cohort 7 (360 mg, once daily) N = 4

COCCOc1cc(F)c(N2CCN(c3nc4c(nnn4C)c(=O)[nH]3)CC2)c(F)c1 [basroparib]
decrease in mean CEA level from baseline ([1]; cohort 6, 300 mg once daily, cycle 2 day 1): 110.20 ± 158.816 ng/mL
decrease in mean CEA level from baseline ([1]; cohort 7, 360 mg once daily, cycle 1 day 15): 77.00 ± 255.731 ng/mL
decrease in mean CEA level from baseline ([1]; cohort 7, 360 mg once daily, cycle 2 day 1): 4.5 ± 0 ng/mL
exposure following 360 mg dose compared with 300 mg dose ([2]; Cmax and AUCs): slightly lower
AUC0–6 [2, 3]: 2,464.7 (50.60) hours × ng/mL
AUClast [2, 3]: 4,845.4 (50.38) hours × ng/mL
Cmax [2, 3]: 720.7 (37.01) ng/mL
Tmax [2, 3]: 3.0 (3, 3) hours
t1/2 ([2]; Cohort 1 (30 mg, once daily), two patients): 6.0 (±3.69)^a hours
AUC0–6 [2, 4]: 3,169.7 (44.98) hours × ng/mL
AUClast [2, 4]: 6,415.2 (69.39) hours × ng/mL
Cmax [2, 4]: 968.3 (30.69) ng/mL
Tmax [2, 4]: 3.0 (3, 4) hours
t1/2 ([2]; Cohort 2 (60 mg, once daily), three patients): 11.0 (±5.33)^b hours
AUC0–6 [2, 5]: 5,425.0 (51.50) hours × ng/mL
AUClast [2, 5]: 15,835.9 (25.14) hours × ng/mL
Cmax [2, 5]: 1,532.4 (68.26) ng/mL
Tmax [2, 5]: 3.0 (3, 24) hours
t1/2 ([2]; Cohort 3 (120 mg, once daily), two patients): 7.6 (±0.42)^a hours
t1/2 [2, 6]: 7.7 (±3.13) hours
AUC0–6 [2, 6]: 8,233.8 (67.46) hours × ng/mL
AUClast [2, 6]: 16,504.6 (61.80) hours × ng/mL
Cmax [2, 6]: 2,345.5 (68.30) ng/mL
Tmax [2, 6]: 3.0 (2, 3) hours
AUC0–6 [2, 7]: 7,622.5 (57.67) hours × ng/mL
AUClast [2, 7]: 15,893.0 (18.35) hours × ng/mL
Cmax [2, 7]: 2,417.1 (54.86) ng/mL
Tmax [2, 7]: 3.0 (2, 6) hours
t1/2 ([2]; Cohort 5 (240 mg, once daily), two patients): 6.0 (±0.39)^a hours
AUC0–6 [2, 8]: 10,968.4 (109.20) hours × ng/mL
AUClast [2, 8]: 24,221.3 (103.59) hours × ng/mL
Cmax [2, 8]: 2,894.1 (115.67) ng/mL
Tmax [2, 8]: 3.0 (2, 4) hours
t1/2 [2, 9]: 6.2 (±2.70)^a hours
t1/2 [2, 10]: 5.8 (±0.94) hours
AUC0–6 [2, 10]: 9,022.0 (45.09) hours × ng/mL
AUClast [2, 10]: 19,692.3 (32.54) hours × ng/mL
Cmax [2, 10]: 2,779.1 (46.78) ng/mL
Tmax [2, 10]: 3.5 (3, 6) hours
AUC0–6,ss [2, 3]: 2,584.9 (22.71) hours × ng/mL
Cmax,ss [2, 3]: 789.0 (5.20) ng/mL
Tmax,ss [2, 3]: 3.0 (3, 6) hours
AUC0–6,ss [2, 4]: 3,703.0 (23.05) hours × ng/mL
Cmax,ss [2, 4]: 1,046.3 (49.51) ng/mL
Tmax,ss [2, 4]: 3.5 (3, 6) hours
AUC0–6,ss [2, 5]: 6,447.2 (65.26) hours × ng/mL
Cmax,ss [2, 5]: 1,526.2 (44.31) ng/mL
Tmax,ss [2, 5]: 3.0 (3, 4) hours
AUC0–6,ss [2, 6]: 10,506.4 (121.25) hours × ng/mL
Cmax,ss [2, 6]: 2,833.1 (105.02) ng/mL
Tmax,ss [2, 6]: 3.0 (3, 4) hours
AUC0–6,ss [2, 7]: 10,509.6 (74.82) hours × ng/mL
Cmax,ss [2, 7]: 3,139.9 (86.00) ng/mL
Tmax,ss [2, 7]: 3.0 (3, 4) hours
Cmax,ss [2, 8]: 2,933.8 (79.18) ng/mL
Tmax,ss [2, 8]: 3.0 (2, 4) hours
AUC0–6,ss [2, 9]: 16,803.6 (10.54)^a hours × ng/mL
AUC0–6,ss [2, 10]: 7,472.7 (103.39) hours × ng/mL
Cmax,ss [2, 10]: 2,289.7 (70.09) ng/mL
Tmax,ss [2, 10]: 4.0 (2, 6) hours
mean half-life (t1/2) ([2]; all dose levels except the 60 mg dose): 6 to 9 h
time to Cmax (median) ([2]; all dose levels, day 1 and day 8 (steady state), oral): 3 to 4 h
change in AUC0–6 on day 8 compared with day 1 ([2]; basroparib, 180 to 240 mg dose levels): 1.4- to 1.7 fold

Reference: PMC12498271, “A First-In-Human Dose-Escalation Phase I Study of Basroparib, a Tankyrase Inhibitor, in Patients with Advanced-Stage Solid Tumors” (Cancer Research Communications, 2025)
